In patent US8591877B2, “Cellulose-based nanoparticles for drug delivery” (Ontario Institute for Cancer Research, priority 2011, dated 2013):
pIC50: −log10 of the molar value. Like-named read-outs stand apart in the source and are kept apart here.

Key:
EMT-6 flank tumors = experiment: Subcutaneous flank tumor study, EMT-6; assay type: in vivo
From the text: (§1) Female BALB/c and C57/BL6 mice (aged 6 weeks, 18-20 g) were purchased from The Jackson Laboratory (Bar Harbor, Me.). All experimental protocols in this study were approved by the Animal Care Committee of the University Health Network (Toronto, Ontario, Canada) in accordance with the policies established in the Guide to the Care and Use of Experimental Animals prepared by the Canadian Council of Animal Care. For each study, the DTX was formulated in a Tween80/ethanol/saline (20:13:67) solution (4 mg DTX/mL), and sterile filtered. The Cellax particles were adjusted to 4, 7.5 or 15 mg DTX/mL in saline and sterile filtered.
(§2) Tissues from mice (organs, bones, and tumors) were rinsed with saline and fixed in 10% formalin for 2 days, followed by storage in 70% ethanol. […] Prepared slides were analyzed on an Aperio Scanner at the Advanced Optical Microscopy Facility (AOMF) at the Princess Margaret Hospital (Toronto, ON). […] For TUNEL, Ki67, and CD31 stained samples, brown pixels were counted with the ImageScope Positive Pixel Count algorithm. For each tumor or organ analyzed, three tissue sections were each divided into three equal regions, generating n=9 data points. Image analysis output were positive pixel counts divided by the area analyzed.
EMT-6 cells were cultured as described previously. […] The tumor size was measured by a caliper, and body weight was monitored. […]

[1] = system: EMT-6 murine mammary carcinoma cells; experiment: In vitro cytotoxicity (IC50 analysis), XTT assay; assay type: cell-based; conditions: Mus musculus, EMT-6 (mammary)
Procedure: (§3) EMT-6 murine mammary carcinoma cells and LL/2 murine Lewis lung cell carcinoma cells were cultured in DMEM media (Invitrogen) with high glucose, supplemented with 10% FBS (Invitrogen), penicillin (100 U/ml) and streptomycin (100 μg/ml) (Invitrogen). The mouse mammary carcinoma cell line EMT-6 was a generous gift from Dr. David Stojdl at the CHEO Research Institute and Dr. Douglas Mahoney at the University of Ottawa. For plating, cells were released from the culture flask with trypsin (Invitrogen), resuspended at a concentration of 1×10^5 cell/mL, and 100 uL of cell suspension was added to the wells of 96 well polystyrene plate. The cells were maintained for 24 hours in culture (37° C., 5% CO2, humidified) before addition of particles. DTX solutions were made up in DMSO and diluted with media to form a 100 nM stock solution with 0.1% DMSO content. These DTX samples were 2× serially diluted with 0.1% DMSO media. Cellax particles were assayed for DTX content, and 10× serially diluted with media. The cultures were maintained for three days, at which time cell viability was assayed by the XTT assay. Briefly, a 1 mg/mL solution of XTT reagent (Sigma) in water was prepared, and phenazine (Sigma) was added just before analysis ([…]). The culture plates were incubated for two hours at 37° C., and absorbance of each well at 480 nm was then read. Wells treated with media (or 0.1% DMSO media) represent 100% viable cultures, and wells containing no cells represent background signal. In a parallel experiment, the DTX or Cellax-containing media were added to the EMT-6 and LL/2 cultures in four steps, with addition of ¼ the dose every 12 hours for two days. The data was analyzed in GraphPad Prism, and the IC50 for each system was calculated.

[2] = system: LL/2 murine Lewis lung cell carcinoma cells; experiment: In vitro cytotoxicity (IC50 analysis), XTT assay; assay type: cell-based; conditions: Mus musculus, LL/2 (lung)
Procedure: as §3

[3] = system: PAN02 cells (murine pancreatic cancer); experiment: Intraperitoneal tumor model study, PAN02; assay type: in vivo, C57/BL6 mice; conditions: PAN02 i.p. model
From the text: as §1
PAN02 cells (murine pancreatic cancer) were cultured in RPMI 1640 supplemented with 10% FBS (Invitrogen), penicillin (100 U/ml) and streptomycin (100 μg/ml) (Invitrogen), and pyruvate (1 mM). Prior to inoculation, the cells were lifted from the culture plates with TrypLE Express (Invitrogen), and re-suspended in supplement free (no FBS, no antibiotics) RPMI media. The PAN02 cells (5×10^6 cells/mL, 0.5 mL) were injected into the intraperitoneal space of C57/BL6 mice. One day post-administration of the cells, the mice (n=3 per group) were treated with DTX (40 mg/kg), Cellax (40 mg DTX eqv/kg), or saline. Mice were sacrificed when >20% body weight loss was recorded, or at the first signs of behavioral or mobility dysfunction.

[4] = system: EMT-6 cells (i.v. inoculated); experiment: Metastatic tumor study, i.v. EMT-6 cells; assay type: in vivo, BALB/c mice
From the text: as §1
Healthy BALB/c mice received an i.v. dose of EMT-6 cells (in supplement free DMEM media) via tail vein injection (50 uL, 2.5×10^5 cell/mL), and one day following received a dose of Cellax (40 mg DTX/kg), 40 mg/kg DTX, or saline (n=10/group). A second dose (20 mg/kg DTX) was administered on day 7 post-cell injection. Mice were sacrificed when >20% body weight loss was recorded, or at the first signs of behavioral or mobility dysfunction. The lungs, heart, liver, kidneys, spleen, femurs, and brain were harvested for histological analysis. A Kaplan Meier plot of survival probability was generated from the survival data.

[5] = Maximum tolerated dose (MTD) study in healthy mice; conditions: female, BALB/c, mouse, in vivo, iv; single i.v. dose, limit <5% body weight loss; read-out: MTD for docetaxel in mice
From the text: as §1
as §2, with “ethanol. Preparation of tissues into slides was performed at the Toronto General Hospital Pathology Research Program lab (Toronto, ON).” for “ethanol.”, “analyzed. […]” for “analyzed.”

LL/2 flank tumors = experiment: Subcutaneous flank tumor study, LL/2; assay type: in vivo
[6] = doses of 210, 150, 300, and 233 mg/m^2 for PTX, NK105, Genexol, Opaxio respectively; cited from earlier work

## CC(=O)O[C@@]12CO[C@@H]1C[C@H](O)[C@@]1(C)C(=O)[C@H](O)C3=C(C)[C@@H](OC(=O)[C@H](O)[C@@H](NC(=O)OC(C)(C)C)c4ccccc4)C[C@@](O)([C@@H](OC(=O)c4ccccc4)[C@H]21)C3(C)C [DTX, Docetaxel]
EMT-6 flank tumors; EMT-6 flank model, single dose 40 mg/kg DTX (eqv), Cellax p<0.001 vs controls, p<0.05 vs DTX
  effect on tumor growth: minor (not significant) effect on tumour growth
EMT-6 flank tumors; EMT-6 tumors, 40 mg/kg, compared to DTX treated tumors and controls
  tumor histology: apoptosis (TUNEL), cell replication (Ki67), angiogenesis (CD31): caused necrosis/apoptosis
[1]; EMT6, 48 h, dose in four parts over two days, read-out: IC50 DTX (nM) Metronomic
  IC50: 6 nM
[1]; EMT6, single (bolus) dose, XTT, Cellax as DTX content, read-out: IC50
  pIC50: 7.10
[2]; 48 h, dose in four parts over two days, read-out: IC50 DTX (nM) Metronomic
  IC50: 12 nM
[2]; single (bolus) dose, XTT, Cellax as DTX content, read-out: IC50
  pIC50: 6.12
[3]; 40 mg/kg
  survival: survival was significantly extended
[3]; 40 mg/kg (DTX eqv), n=3 per group
  weight loss or disease symptoms: did not exhibit signs of weight loss or disease symptoms
[4]; 40 mg/kg day 1, 20 mg/kg day 7, n=10/group
  median survival time: 9 days
[4]; metastatic EMT-6 model, 40 mg/kg
  onset of weight loss: 6 days
[4]; metastatic EMT-6 model, mice affected per group of 10
  signs of disease stress: parelsis (leg movements), piloerection: 4/10
[5]
  MTD at 7 days: 40 mg/kg
LL/2 flank tumors; LL/2 flank model, single dose 40 mg/kg DTX (eqv)
  effect on tumor growth: did not alter tumor growth characteristics
LL/2 flank tumors; LL/2 tumors
  tumor histology: necrosis (H&E) and TUNEL staining: positive TUNEL staining was minimal

## CC(=O)O[C@H]1C(=O)[C@@]2(C)[C@H]([C@H](OC(=O)c3ccccc3)[C@]3(O)C[C@H](OC(=O)[C@H](O)[C@@H](NC(=O)c4ccccc4)c4ccccc4)C(C)=C1C3(C)C)[C@]1(OC(C)=O)CO[C@@H]1C[C@@H]2O [PTX, paclitaxel]
[6]
  half life: 13.3 h

## Nc1ccn([C@@H]2O[C@H](CO)[C@@H](O)C2(F)F)c(=O)n1 [gemcitabine]
[3]; 120 mg/kg
  benefit of treatment: did not confer significantly increased benefits
